Measurements from article PMC9157728, “Albumin Binder–Conjugated Fibroblast Activation Protein Inhibitor Radiopharmaceuticals for Cancer Therapy” (Journal of Nuclear Medicine, 2022).

Assays:
[1] = tested on: pancreatic cancer PDX tumors; test: Radiotherapy study in pancreatic cancer PDX-bearing mice (tumor growth); type: in vivo; conditions: 1.85 MBq or 3.7 MBq, vs saline or 3.7 MBq ^177Lu-FAPI-04
Protocol: (§1) ^68Ga-FAPI-04 PET imaging was performed to evaluate the tumor volume, and the mice were treated when their average tumor volume reached 35 mm^3. The PDX-bearing mice (6 groups, 7–9 mice per group) were treated by saline, 3.7 MBq of ^177Lu-FAPI-04, 1.85 MBq of ^177Lu-TEFAPI-06, 3.7 MBq of ^177Lu-TEFAPI-06, 1.85 MBq of ^177Lu-TEFAPI-07, or […] of ^177Lu-TEFAPI-07. Tumor volume and body weight were monitored every 2 or 3 d, and the animals were euthanized when the tumor volume exceeded 1,000 mm^3. Histopathologic staining was performed with an antihuman FAP monoclonal antibody (ab207178; Abcam), and hematoxylin and eosin staining was performed as previously described ([29]).

[2] = tested on: pancreatic cancer PDX tumors; test: SPECT imaging in pancreatic cancer PDX-bearing mice; type: in vivo; conditions: for tumor uptake at 6 d after injection (SPECT imaging and biodistribution): 6 d after the injection; for tumor-to-nontargeted-tissue signal ratios on SPECT: PDX tumor models, until 144 h after injection
Protocol: SPECT scans were performed on a Mediso nanoSPECT/CT imaging system. ^177Lu-TEFAPI-06 or ^177Lu-TEFAPI-07 SPECT imaging was performed on pancreatic cancer PDX–bearing mice at the indicated time points after intravenous injection of 37 MBq of ^177Lu-TEFAPI-06 or ^177Lu-TEFAPI-07, respectively.

[3] = Ex vivo biodistribution study in PDX-bearing mice
Protocol: PDX-bearing mice were injected with 925.0 kBq of ^177Lu-TEFAPI-06 or ^177Lu-TEFAPI-07 for an ex vivo biodistribution study. The mice were killed at 24 h and 96 h after injection, the counts of the different organs were measured with a γ-counter, and the data were normalized to percentage injected dose (%ID)/g using 1% of total counts.

[4] = Stability in vitro in saline and human serum (radio-HPLC); type: in vitro ADME; conditions: 7 d
Protocol: The radiolabeling of ^68Ga, ^86Y, and ^177Lu was performed by incubation with 50 nmol of precursor at pH 4.5–5.0 at 90°C for 10 min. The product was purified by C18 column extraction, and the radiochemical purity was determined by high-performance liquid chromatography equipped with a radioactivity detector. The stability of ^177Lu-TEFAPI-06 and ^177Lu-TEFAPI-07 in saline and human serum was monitored from 2 to 168 h using radio–high-performance liquid chromatography ([13]). More details about the radiochemistry, the quality control testing, and the stability assay can be found in the supplemental materials (section 3).

[5] = Radiotherapy study: body weight and hematoxylin and eosin staining of main organs; type: in vivo; conditions: pancreatic cancer PDX-bearing mice after treatment
Protocol: as §1

tumor uptake at 6 d after injection (SPECT imaging and biodistribution) [2] | tumor-to-nontargeted-tissue signal ratios on SPECT [2] | Blood uptake ([3]; 24 h after injection) | Bone uptake ([3]; 24 h after injection) | Brain uptake ([3]; 24 h after injection) | Fat uptake ([3]; 24 h after injection) | Heart uptake ([3]; 24 h after injection) | Kidney uptake ([3]; 24 h after injection) | Large intestine uptake ([3]; 24 h after injection) | Liver uptake ([3]; 24 h after injection) | Lung uptake ([3]; 24 h after injection) | Muscle uptake ([3]; 24 h after injection) | Pancreas uptake ([3]; 24 h after injection) | Small intestine uptake ([3]; 24 h after injection) | Spleen uptake ([3]; 24 h after injection) | Stomach uptake ([3]; 24 h after injection) | Tumor uptake ([3]; 24 h after injection) | tumor-to-liver ratio ([3]; 24 h after injection) | Blood uptake ([3]; 96 h after injection) | SMILES | tumor growth after treatment [1] | also measured
still notable | high | 12.32 %ID/g | 1.32 %ID/g | 0.37 %ID/g | 1.86 %ID/g | 3.70 %ID/g | 3.20 %ID/g | 1.66 %ID/g | 2.98 %ID/g | 4.33 %ID/g | 1.09 %ID/g | 2.01 %ID/g | 2.55 %ID/g | 3.00 %ID/g | 1.75 %ID/g | 8.68 %ID/g | 2.91 | 2.25 %ID/g | N#C[C@@H]1CC(F)(F)CN1C(=O)CNC(=O)c1ccnc2ccc(OCCCN3CCN(C(=O)[C@H](CCCCNC(=O)CN4CCN(CC(=O)[O-])CCN(CC(=O)[O-])CCN(CC(=O)[O-])CC4)NC(=O)CCCC(=O)N[C@@H](CCCCNC(=O)CCCc4ccc(I)cc4)C(=O)O)CC3)cc12.[177Lu+3] [^177Lu-TEFAPI-06] | remarkable suppression of tumor growth | Bone uptake ([3]; 96 h after injection): 0.35 %ID/g; Brain uptake ([3]; 96 h after injection): 0.09 %ID/g; Fat uptake ([3]; 96 h after injection): 1.55 %ID/g; Heart uptake ([3]; 96 h after injection): 1.51 %ID/g; Kidney uptake ([3]; 96 h after injection): 2.66 %ID/g; Large intestine uptake ([3]; 96 h after injection): 0.53 %ID/g; Liver uptake ([3]; 96 h after injection): 1.74 %ID/g; Lung uptake ([3]; 96 h after injection): 1.95 %ID/g; Muscle uptake ([3]; 96 h after injection): 0.45 %ID/g; Pancreas uptake ([3]; 96 h after injection): 0.75 %ID/g; Small intestine uptake ([3]; 96 h after injection): 0.61 %ID/g; Spleen uptake ([3]; 96 h after injection): 3.66 %ID/g; Stomach uptake ([3]; 96 h after injection): 0.54 %ID/g; Tumor uptake ([3]; 96 h after injection): 7.33 %ID/g; tumor-to-liver ratio ([3]; 96 h after injection): 4.21; radiochemistry purity after incubation in human serum [4]: over 90%; radiochemistry purity after incubation in saline [4]: over 90%; side effects, hematoxylin and eosin staining of the main organs [5]: almost negligible
still notable | high | 5.64 %ID/g | 1.71 %ID/g | 0.23 %ID/g | 1.82 %ID/g | 2.53 %ID/g | 8.67 %ID/g | 1.15 %ID/g | 3.21 %ID/g | 2.58 %ID/g | 1.00 %ID/g | 2.16 %ID/g | 1.19 %ID/g | 2.69 %ID/g | 1.20 %ID/g | 7.87 %ID/g | 2.45 | 0.51 %ID/g | Cc1cc(-c2ccc(NC(=O)CCCC(=O)N[C@@H](CCCCNC(=O)CN3CCN(CC(=O)[O-])CCN(CC(=O)[O-])CCN(CC(=O)[O-])CC3)C(=O)N3CCN(CCCOc4ccc5nccc(C(=O)NCC(=O)N6CC(F)(F)C[C@H]6C#N)c5c4)CC3)c(C)c2)ccc1N=Nc1ccc2c(S(=O)(=O)O)cc(S(=O)(=O)O)c(N)c2c1O.[177Lu+3] [^177Lu-TEFAPI-07] | remarkable suppression of tumor growth | Bone uptake ([3]; 96 h after injection): 0.18 %ID/g; Fat uptake ([3]; 96 h after injection): 0.48 %ID/g; Heart uptake ([3]; 96 h after injection): 0.62 %ID/g; Kidney uptake ([3]; 96 h after injection): 10.16 %ID/g; Large intestine uptake ([3]; 96 h after injection): 0.10 %ID/g; Liver uptake ([3]; 96 h after injection): 2.31 %ID/g; Lung uptake ([3]; 96 h after injection): 0.73 %ID/g; Muscle uptake ([3]; 96 h after injection): 0.28 %ID/g; Pancreas uptake ([3]; 96 h after injection): 0.53 %ID/g; Small intestine uptake ([3]; 96 h after injection): 0.16 %ID/g; Spleen uptake ([3]; 96 h after injection): 1.88 %ID/g; Stomach uptake ([3]; 96 h after injection): 0.29 %ID/g; Tumor uptake ([3]; 96 h after injection): 7.57 %ID/g; tumor-to-liver ratio ([3]; 96 h after injection): 3.28; radiochemistry purity after incubation in human serum [4]: over 90%; radiochemistry purity after incubation in saline [4]: over 90%; side effects, hematoxylin and eosin staining of the main organs [5]: almost negligible
